Patent publication US9179694B2, “Method and composition for enhancing milk production and milk component concentrations” (PURINA ANIMAL NUTRITION LLC, priority 2003, dated 2015)
Marks after values point to notes of the source that are not given here.

Assay: 4% fat-corrected milk production in sorbitol feeding trials
Assay type: in vivo, Holstein cows
Description: To convert a particular quantity (weight) of a milk sample to the quantity (weight) of Fat-Corrected Milk, based on a correction to a concentration of four weight percent fat, based on the total weight off the Fat-Corrected Milk, the following equation is employed: 4 wt % FCM=Original Milk Weight×(0.4+(0.15×% TFOM)) where: • the term 4 wt % FCM means the calculated weight of Fat-Corrected Milk, based on a correction to a concentration of four weight percent fat, based on the total weight of the Fat-Corrected Milk, • the term Original Milk Weight means the weight of the original milk sample that is being corrected to a four weight percent fat basis, and • % TFOM is the weight % total fat in the original milk sample, based on the total weight of the original milk sample. Each cow of each of the six different trials (Control Trial #1, Control Trial #2, Pre-Partum Trial #1, Pre-Partum Trial #2, Pre/Post Trial #1, and Pre/Post Trial #2) was milked three times daily and the weight of produced milk by each cow was recorded at each milking. The milk from each cow was sampled once per week (⅓ of the sample volume from each of the three milkings occurring on the weekly milk sampling day) and was analyzed for true protein, total fat, lactose, and total solids, as detailed in the property determination and characterization techniques presented above. Additionally, samples of blood were periodically obtained from each cow during the four trials (Control Trial 2, Pre-Partum Trial #2, Pre/Post Trial #1, and Pre/Post Trial #2) encompassed in Example Two and were analyzed for non-esterified fatty acid (NEFA) content as detailed in the property determination and characterization techniques presented above. No NEFA analysis was conducted on the cows employed in Control Trial #1 or Pre-Partum Trial #1 that are the subject of Example One. Example One includes Control Trial #1 and Pre-Partum Trial #1. Both primiparious cows and multiparious cows were included in Control Trial #1 and Pre-Partum Trial #1. Five primiparious cows and fifteen multiparious cows were included in Control Trial #1; likewise, five primiparious cows and fifteen multiparious cows were included in Pre-Partum Trial #1. All cows included in Control Trial #1 and Pre-Partum Trial #1 were Holsteins. Example Two includes Control Trial #2, Pre-Partum Trial #2, Pre/Post Trial #1, and Pre/Post Trial #2. Only multiparious, Holstein cows were included in Control Trial #2, Pre-Partum Trial #1, Pre/Post Trial #1, and Pre/Post Trial #2. Eighteen multiparious cows were included in both Control Trial #2 and Pre-Partum Trial #2, while sixteen multiparious cows were included in Pre/Post Trial #1 and seventeen multiparious cows were included in Pre/Post Trial #2.

OC[C@@H](O)[C@@H](O)[C@H](O)[C@@H](O)CO [sorbitol]
Milk Production (4.0% fat basis) (Pre-Partum Trial #1 (75/0/0 g/day in wk −3..−1/+1..+4/+5..+8), multiparious cows, weeks +1 through +8): 98.6 lbs/day | Milk Production (4.0% fat basis) (Pre-Partum Trial #1 (75/0/0 g/day in wk −3..−1/+1..+4/+5..+8), primiparious cows, weeks +1 through +8): 79.3 lbs/day | 4% fat-corrected milk production increase (Pre-Partum Trial #1 (75 g/day wk −3..−1 only) versus Control Trial #1, multiparious cows, weeks +1 through +8): 12.4% | increase in production of 4% fat-corrected milk (Pre-Partum Trial #1 (75 g/day wk −3..−1 only) versus Control Trial #1, primiparious cows, weeks +1 through +8): 7.6% | Milk Production (4.0% fat basis) (Pre-Partum Trial #2 (75/0/100 g/day in wk −3..−1/+1..+4/+5..+8), multiparious cows, week +1): 71.1^a lbs/day | Milk Production (4.0% fat basis) (Pre-Partum Trial #2 (75/0/100 g/day in wk −3..−1/+1..+4/+5..+8), multiparious cows, week +2): 100 lbs/day | Milk Production (4.0% fat basis) (Pre-Partum Trial #2 (75/0/100 g/day in wk −3..−1/+1..+4/+5..+8), multiparious cows, week +3): 104 lbs/day | Milk Production (4.0% fat basis) (Pre-Partum Trial #2 (75/0/100 g/day in wk −3..−1/+1..+4/+5..+8), multiparious cows, week +4): 101 lbs/day | Milk Production (4.0% fat basis) (Pre-Partum Trial #2 (75/0/100 g/day in wk −3..−1/+1..+4/+5..+8), multiparious cows, week +5): 104^ab lbs/day | Milk Production (4.0% fat basis) (Pre-Partum Trial #2 (75/0/100 g/day in wk −3..−1/+1..+4/+5..+8), multiparious cows, week +6): 102 lbs/day | Milk Production (4.0% fat basis) (Pre-Partum Trial #2 (75/0/100 g/day in wk −3..−1/+1..+4/+5..+8), multiparious cows, week +7): 102 lbs/day | Milk Production (4.0% fat basis) (Pre-Partum Trial #2 (75/0/100 g/day in wk −3..−1/+1..+4/+5..+8), multiparious cows, week +8): 99.5^ab lbs/day | Milk Production (4.0% fat basis) (Pre-Partum Trial #2 (75/0/100 g/day in wk −3..−1/+1..+4/+5..+8), multiparious cows, weeks +1 through +4): 94.4 lbs/day | Milk Production (4.0% fat basis) (Pre-Partum Trial #2 (75/0/100 g/day in wk −3..−1/+1..+4/+5..+8), multiparious cows, weeks +1 through +8): 98 lbs/day | Milk Production (4.0% fat basis) (Pre-Partum Trial #2 (75/0/100 g/day in wk −3..−1/+1..+4/+5..+8), multiparious cows, weeks +5 through +8): 102 lbs/day | Milk Production (4.0% fat basis) (Pre/Post Trial #1 (150/125/100 g/day in wk −3..−1/+1..+4/+5..+8), multiparious cows, week +1): 82.1^ab lbs/day | Milk Production (4.0% fat basis) (Pre/Post Trial #1 (150/125/100 g/day in wk −3..−1/+1..+4/+5..+8), multiparious cows, week +1, two-trial comparison with Control Trial #2 (Table 23)): 82.4 lbs/day | Milk Production (4.0% fat basis) (Pre/Post Trial #1 (150/125/100 g/day in wk −3..−1/+1..+4/+5..+8), multiparious cows, week +2): 100 lbs/day | Milk Production (4.0% fat basis) (Pre/Post Trial #1 (150/125/100 g/day in wk −3..−1/+1..+4/+5..+8), multiparious cows, week +2, two-trial comparison with Control Trial #2 (Table 23)): 99.7 lbs/day | Milk Production (4.0% fat basis) (Pre/Post Trial #1 (150/125/100 g/day in wk −3..−1/+1..+4/+5..+8), multiparious cows, week +3): 107 lbs/day | Milk Production (4.0% fat basis) (Pre/Post Trial #1 (150/125/100 g/day in wk −3..−1/+1..+4/+5..+8), multiparious cows, week +3, two-trial comparison with Control Trial #2 (Table 23)): 107 lbs/day | Milk Production (4.0% fat basis) (Pre/Post Trial #1 (150/125/100 g/day in wk −3..−1/+1..+4/+5..+8), multiparious cows, week +4): 109 lbs/day | Milk Production (4.0% fat basis) (Pre/Post Trial #1 (150/125/100 g/day in wk −3..−1/+1..+4/+5..+8), multiparious cows, week +4, two-trial comparison with Control Trial #2 (Table 23)): 109 lbs/day | Milk Production (4.0% fat basis) (Pre/Post Trial #1 (150/125/100 g/day in wk −3..−1/+1..+4/+5..+8), multiparious cows, week +5): 108^ab lbs/day | Milk Production (4.0% fat basis) (Pre/Post Trial #1 (150/125/100 g/day in wk −3..−1/+1..+4/+5..+8), multiparious cows, week +5, two-trial comparison with Control Trial #2 (Table 23)): 108 lbs/day | Milk Production (4.0% fat basis) (Pre/Post Trial #1 (150/125/100 g/day in wk −3..−1/+1..+4/+5..+8), multiparious cows, week +6): 109 lbs/day | Milk Production (4.0% fat basis) (Pre/Post Trial #1 (150/125/100 g/day in wk −3..−1/+1..+4/+5..+8), multiparious cows, week +6, two-trial comparison with Control Trial #2 (Table 23)): 109 lbs/day | Milk Production (4.0% fat basis) (Pre/Post Trial #1 (150/125/100 g/day in wk −3..−1/+1..+4/+5..+8), multiparious cows, week +7): 103 lbs/day | Milk Production (4.0% fat basis) (Pre/Post Trial #1 (150/125/100 g/day in wk −3..−1/+1..+4/+5..+8), multiparious cows, week +7, two-trial comparison with Control Trial #2 (Table 23)): 103 lbs/day | Milk Production (4.0% fat basis) (Pre/Post Trial #1 (150/125/100 g/day in wk −3..−1/+1..+4/+5..+8), multiparious cows, week +8): 108.7^b lbs/day | Milk Production (4.0% fat basis) (Pre/Post Trial #1 (150/125/100 g/day in wk −3..−1/+1..+4/+5..+8), multiparious cows, week +8, two-trial comparison with Control Trial #2 (Table 23)): 109 lbs/day | Milk Production (4.0% fat basis) (Pre/Post Trial #1 (150/125/100 g/day in wk −3..−1/+1..+4/+5..+8), multiparious cows, weeks +1 through +4): 99.5 lbs/day | Milk Production (4.0% fat basis) (Pre/Post Trial #1 (150/125/100 g/day in wk −3..−1/+1..+4/+5..+8), multiparious cows, weeks +1 through +4, two-trial comparison with Control Trial #2 (Table 23)): 99.7 lbs/day | Milk Production (4.0% fat basis) (Pre/Post Trial #1 (150/125/100 g/day in wk −3..−1/+1..+4/+5..+8), multiparious cows, weeks +1 through +8): 103 lbs/day | Milk Production (4.0% fat basis) (Pre/Post Trial #1 (150/125/100 g/day in wk −3..−1/+1..+4/+5..+8), multiparious cows, weeks +1 through +8, two-trial comparison with Control Trial #2 (Table 23)): 103 lbs/day | Milk Production (4.0% fat basis) (Pre/Post Trial #1 (150/125/100 g/day in wk −3..−1/+1..+4/+5..+8), multiparious cows, weeks +5 through +8): 107 lbs/day | Milk Production (4.0% fat basis) (Pre/Post Trial #1 (150/125/100 g/day in wk −3..−1/+1..+4/+5..+8), multiparious cows, weeks +5 through +8, two-trial comparison with Control Trial #2 (Table 23)): 107 lbs/day | greater production of 4% fat-corrected milk (Pre/Post Trial #1 (150/125/100 g/day) versus Control Trial #2, multiparious cows, week +8): 13.2% | increase in production of 4% fat-corrected milk (Pre/Post Trial #1 (150/125/100 g/day) versus Control Trial #2, multiparious cows, weeks +5 through +8 (Table 23)): 8.1% | greater rate of 4% fat-corrected milk production (Pre/Post Trial #1 (150/125/100 g/day) versus Pre/Post Trial #2 (75/75/100 g/day), multiparious cows, week +8): 15.1% | Milk Production (4.0% fat basis) (Pre/Post Trial #2 (75/75/100 g/day in wk −3..−1/+1..+4/+5..+8), multiparious cows, week +1): 88.6^b lbs/day | Milk Production (4.0% fat basis) (Pre/Post Trial #2 (75/75/100 g/day in wk −3..−1/+1..+4/+5..+8), multiparious cows, week +2): 103 lbs/day | Milk Production (4.0% fat basis) (Pre/Post Trial #2 (75/75/100 g/day in wk −3..−1/+1..+4/+5..+8), multiparious cows, week +3): 106 lbs/day | Milk Production (4.0% fat basis) (Pre/Post Trial #2 (75/75/100 g/day in wk −3..−1/+1..+4/+5..+8), multiparious cows, week +4): 105 lbs/day | Milk Production (4.0% fat basis) (Pre/Post Trial #2 (75/75/100 g/day in wk −3..−1/+1..+4/+5..+8), multiparious cows, week +5): 111^b lbs/day | Milk Production (4.0% fat basis) (Pre/Post Trial #2 (75/75/100 g/day in wk −3..−1/+1..+4/+5..+8), multiparious cows, week +6): 104 lbs/day | Milk Production (4.0% fat basis) (Pre/Post Trial #2 (75/75/100 g/day in wk −3..−1/+1..+4/+5..+8), multiparious cows, week +7): 101 lbs/day | Milk Production (4.0% fat basis) (Pre/Post Trial #2 (75/75/100 g/day in wk −3..−1/+1..+4/+5..+8), multiparious cows, week +8): 94.4^a lbs/day | Milk Production (4.0% fat basis) (Pre/Post Trial #2 (75/75/100 g/day in wk −3..−1/+1..+4/+5..+8), multiparious cows, weeks +1 through +4): 100.6 lbs/day | Milk Production (4.0% fat basis) (Pre/Post Trial #2 (75/75/100 g/day in wk −3..−1/+1..+4/+5..+8), multiparious cows, weeks +1 through +8): 101 lbs/day | Milk Production (4.0% fat basis) (Pre/Post Trial #2 (75/75/100 g/day in wk −3..−1/+1..+4/+5..+8), multiparious cows, weeks +5 through +8): 102 lbs/day | greater production of 4% fat-corrected milk (Pre/Post Trial #2 (75/75/100 g/day) versus Control Trial #2, multiparious cows, week +5): 12.1% | greater rate of 4% fat-corrected milk production (Pre/Post Trial #2 (75/75/100 g/day) versus Pre-Partum Trial #2 (75/0/100 g/day), multiparious cows, week +1): 24.6%
